Source: patent publication US7785583B2, “In situ maturation of dendritic cells” (Argos Therapeutics, Inc., priority 2002, dated 2010)

What was measured:
[1] = test system: immature DC injected into the ear pinna; experiment: Migration of CFSE-labelled injected DC to the draining auricular lymph node (flow cytometry); format: in vivo, mice (C57BL/6); details: interval between adjuvant application and DC injection extended to 4 hours; determined as in FIG. 3
Method: FIG. 3 depicts flow cytometry analysis of the migration of DC to the draining lymph nodes. Immature or mature DC were transfected with OVA mRNA and incubated with CFSE. Cells were washed and 3×10^5 DC were injected into the ear pinna. […] United States of America). Twenty-four hours post […] of the DC, the draining auricular lymph node was dissected, a cell suspension generated, and cells were analyzed by flow cytometry. To identify the DC subset, cells gated for CD11c^+ granular cells (upper panels) were analyzed for class II expression and CFSE content (lower panels). Injected DC are class II^high CFSE^+ (UR quadroon) whereas the class II^highCFSE^− represent the resident and newly arrived, endogenous, DC (UL quadroon). The percentages shown in the UR quadroons constitute the percentage of CFSE^+ DC injected into the ear found in the lymph node.
Marrow from tibias and femurs of C57BL/6 mice were harvested followed by treatment of the precursors with ammonium chloride Tris buffer for 3 min at 37° C. to deplete the red blood cells. The precursors were plated in RPMI-5% FCS with GM-CSF (15 ng/ml) and IL-4 (10 ng/ml). GM-CSF-containing supernatant was harvested after 24 h capillary culture from GM-CSF producing melanoma cell line (F10.9/GM-CSF) and IL-4 was obtained from Peprotech (Rocky Hill, N.J., United States of America). The concentration of GM-CSF used was determined by ELISA. […]

[2] = test system: OVA-expressing EL-4 cells; experiment: Induction of OVA-specific CTL in mice immunized with OVA mRNA transfected DC (standard cytotoxicity assay); format: in vivo, mice (C57BL/6)
Method: FIG. 4 is a graph depicting the induction of OVA CTL in mice immunized with OVA mRNA transfected DC. Mice were immunized as described in FIG. 3 except that DC were not stained with CFSE. Splenocytes were harvested after 8 days and either analyzed directly for CTL (left panel) or incubated for 5 days in the presence of OVA mRNA transfected DC (right panel). CTL activity was determined using a standard cytotoxicity assay and OVA-expressing EL-4 cells, and EL-4 cells as targets. (iDC: immature DC; mDC: mature DC; solid gray square: iDC and OVA-expressing EL-4 cells; solid black oval: […] adjuvant and OVA-expressing EL-4 cells; solid black square: mDC and OVA-expressing EL-4 cells; open gray square: iDC and EL4 cells; open black oval: […] adjuvant and EL4 cells; open black square: mDC and EL4 cells). FIG. 5 is a graph depicting the induction of OVA specific CTL with immature DC during in situ maturation with Imiquimod (sold under the trademark […] by 3M of St. Paul, Minn., United States of America) and poly arginine. Experimental details are as described for FIG. 4. Here, in addition to […] adjuvant, Imiquimod ([…] brand) and poly arginine (poly-arg) were used to induce local “inflammation” prior to immunization with the OVA mRNA transfected immature DC. The […] clinically approved cream formulation of Imiquimod was applied to the ear surface 15 minutes prior to DC injection. Poly-arg was injected into the ear pinna (50 μl; 100 μg/ml) 15 minutes prior to DC injection. (open square: iDC; solid circle: […] adjuvant; solid triangle: […] adjuvant; open triangle: iDC+poly-arginine; solid square: mDC). FIG. 6 is a graph depicting the induction of OVA specific CTL with immature DC during in situ maturation with Imiquimod ([…] brand). […] Antigen loaded immature or mature DC were injected into the ear pinna and mice were evaluated for (a) migration of the DC to the draining auricular lymph node or (b) induction of OVA CTL. […] See […], Mohr H., “A fluorescence-based assay for quantitation of lymphokine-activated killer cell activity”, J Immunol Methods (1989) 119:45-51.

[3] = FIG. 5, injection site pretreated 15 minutes prior to injection of OVA mRNA transfected immature DC

| Compound | migration, % of the injected DC [1] [%] | CTL response (OVA-specific CTL) [2, 3] | CTL response (OVA-specific CTL) ([2]; FIG. 6, Imiquimod (ALDARA brand) applied 4 hours before injection of OVA mRNA transfected immature DC) |
| --- | --- | --- | --- |
| CC(C)Cn1cnc2c(N)nc3ccccc3c21 [Imiquimod] | 9.2 | almost as effective as ADJUPRIME™ adjuvant | more potent CTL response than the ex vivo matured DC |
| poly arginine [poly-arg] | – | the effect of poly-arg is small | – |
